Assay results: patent US20260285857A1, “BICYCLIC AND HETEROCYCLIC AMIDE COMPOUNDS” (priority 2024, published 2026)

Test system: immunoglobulin light chain protein WIL-FL T46L
Assay: Differential scanning fluorimetry (thermal shift) assay
Format: binding
Settings: Table B; temperature shift [Tm]compound-[Tm]vehicle; recombinant WIL-FL T46L

Compound | DSF
Cc1cc(N2CC[C@](C)(c3ccccc3)C2)cn2nc(C(=O)N3CCC4(CCC(O)(c5cccc(C(=O)O)n5)C4)C3)nc12 (stereo partly drawn) [Compound 670, 6-[8-hydroxy-2-[8-methyl-6-[(3R)-3-methyl-3-phenyl-pyrrolidin-1-yl]-[1,2,4]triazolo[1,5-a]pyridine-2-carbonyl]-2-azaspiro[4.4]nonan-8-yl]pyridine-2-carboxylic acid] | ***** (>2.5° C.=*****)
Cc1cc(N2CC[C@](C)(c3ccccc3)C2)cn2nc(C(=O)N3CCC4(CC(=O)N(c5cccc(C(=O)O)n5)C4)C3)nc12 (stereo partly drawn) [Compound 671, 6-[7-[8-methyl-6-[(3R)-3-methyl-3-phenyl-pyrrolidin-1-yl]-[1,2,4]triazolo[1,5-a]pyridine-2-carbonyl]-3-oxo-2,7-diazaspiro[4.4]nonan-2-yl]pyridine-2-carboxylic acid] | ***** (>2.5° C.=*****)
Cc1cc(N2CC[C@](C)(c3ccccc3)C2)cn2nc(C(=O)N3CC[C@@]4(CCN(C(=O)C5COC(C(=O)O)C5)C4)C3)nc12 (stereo partly drawn) [Compound 672] | ***** (>2.5° C.=*****)
Cc1cc(N2CC[C@](C)(c3ccccc3)C2)cn2nc(C(=O)NC3CC4(CCN(C(=O)CC(C)(O)C(=O)O)C4)C3)nc12 (stereo partly drawn) [Compound 673, 2-hydroxy-2-methyl-4-(2-(8-methyl-6-((R)-3-methyl-3-phenylpyrrolidin-1-yl)-[1,2,4]triazolo[1,5-a]pyridine-2-carboxamido)-6-azaspiro[3.4]octan-6-yl)-4-oxobutanoic acid] | ***** (>2.5° C.=*****)
Cc1cc(N2CC[C@](C)(c3ccccc3)C2)cn2nc(C(=O)N3CCC4(CCC(C5CCC(C(=O)O)CC5)C4)C3)nc12 (stereo partly drawn) [Compound 674, 4-(2-(8-methyl-6-((R)-3-methyl-3-phenylpyrrolidin-1-yl)-[1,2,4]triazolo[1,5-a]pyridine-2-carbonyl)-2-azaspiro[4.4]nonan-7-yl)cyclohexane-1-carboxylic acid] | ***** (>2.5° C.=*****)
Cc1cc(N2CC[C@](C)(c3ccccc3)C2)cn2nc(C(=O)N3CCC4(CCCN4c4cccc(C(=O)O)n4)C3)nc12 (stereo partly drawn) [Compound 675, 6-(7-(8-methyl-6-((R)-3-methyl-3-phenylpyrrolidin-1-yl)-[1,2,4]triazolo[1,5-a]pyridine-2-carbonyl)-1,7-diazaspiro[4.4]nonan-1-yl)picolinic acid] | ***** (>2.5° C.=*****)
Cc1cc(N2CC[C@](C)(c3ccccc3)C2)cn2nc(C(=O)NC3CCC34CC(O)C4)nc12 (stereo partly drawn) [Compound 676, N-(2-hydroxyspiro[3.3]heptan-7-yl)-8-methyl-6-[(3R)-3-methyl-3-phenyl-pyrrolidin-1-yl]-[1,2,4]triazolo[1,5-a]pyridine-2-carboxamide] | ***** (>2.5° C.=*****)
Cc1cc(N2CC[C@](C)(c3ccccc3)C2)cn2nc(C(=O)NC3CCC34CC(OCC(=O)O)C4)nc12 (stereo partly drawn) [Compound 677, 2-[7-[[8-methyl-6-[(3R)-3-methyl-3-phenyl-pyrrolidin-1-yl]-[1,2,4]triazolo[1,5-a]pyridine-2-carbonyl]amino]spiro[3.3]heptan-2-yl]oxyacetic acid] | ***** (>2.5° C.=*****)
Cc1cc(N2CC[C@](C)(c3ccccc3)C2)cn2nc(C(=O)NC3CC4(C3)CN(C(=O)C35CCC(C(=O)O)(CC3)OC5)C4)nc12 [Compound 678, 4-[6-[[8-methyl-6-[(3R)-3-methyl-3-phenyl-pyrrolidin-1-yl]-[1,2,4]triazolo[1,5-a]pyridine-2-carbonyl]amino]-2-azaspiro[3.3]heptane-2-carbonyl]-2-oxabicyclo[2.2.2]octane-1-carboxylic acid] | ***** (>2.5° C.=*****)
COC(C)(CC(=O)N1CC2(CC(NC(=O)c3nc4c(C)cc(N5CC[C@](C)(c6ccccc6)C5)cn4n3)C2)C1)C(=O)O (stereo partly drawn) [Compound 679] | ***** (>2.5° C.=*****)
Cc1cc(N2CC[C@](C)(c3ccccc3)C2)cn2nc(C(=O)NC3CC4(C3)CN(C(=O)C3CC(C)(C(=O)O)C3)C4)nc12 (stereo partly drawn) [Compound 680] | ***** (>2.5° C.=*****)
Cc1cc(N2CC[C@](C)(c3ccccc3)C2)cn2nc(C(=O)NC3CC4(C3)CN(C(=O)C35CC(C(=O)O)(C3)C5)C4)nc12 [Compound 681] | ***** (>2.5° C.=*****)
Cc1cc(N2CC[C@](C)(c3ccccc3)C2)cn2nc(C(=O)NC3(CO)CCCN(c4cccc(C(=O)O)n4)C3)nc12 (stereo partly drawn) [Compound 682, 6-[3-(hydroxymethyl)-3-[[8-methyl-6-[(3R)-3-methyl-3-phenyl-pyrrolidin-1-yl]-[1,2,4]triazolo[1,5-a]pyridine-2-carbonyl]amino]-1-piperidyl]pyridine-2-carboxylic acid] | ***** (>2.5° C.=*****)
Cc1cc(N2CC[C@](C)(c3ccccc3)C2)cn2nc(C(=O)N[C@@H]3CN(c4cccc(C(=O)O)n4)CC3(C)C)nc12 [Compound 683] | ***** (>2.5° C.=*****)
Cc1cc(N2CC[C@](C)(c3ccccc3)C2)cn2nc(C(=O)NC3CN(c4cccc(C(=O)O)n4)CC3O)nc12 (stereo partly drawn) [Compound 684] | ***** (>2.5° C.=*****)
Cc1cc(N2CC[C@](C)(c3ccccc3)C2)cn2nc(C(=O)NC3C4CCN(c5cccc(C(=O)O)n5)CC43)nc12 (stereo partly drawn) [Compound 685, 6-(7-(8-methyl-6-((R)-3-methyl-3-phenylpyrrolidin-1-yl)-[1,2,4]triazolo[1,5-a]pyridine-2-carboxamido)-3-azabicyclo[4.1.0]heptan-3-yl)picolinic acid] | ***** (>2.5° C.=*****)
Cc1cc(N2CC[C@](C)(c3ccccc3)C2)cn2nc(C(=O)N3CCC(O)(CNc4cccc(C(=O)O)n4)C3)nc12 (stereo partly drawn) [Compound 686] | ***** (>2.5° C.=*****)

Compound | DSF
Cc1cc(N2CC[C@](C)(c3ccccc3)C2)cn2nc(C(=O)N3CCC4(C3)CN(c3cccc(C(=O)O)n3)C(=O)O4)nc12 (stereo partly drawn) [Compound 687] | ***** (>2.5° C.=*****)
Cc1cc(N2CC[C@](C)(c3ccccc3)C2)cn2nc(C(=O)N3CCC4C3CC(=O)N4c3cccc(C(=O)O)n3)nc12 (stereo partly drawn) [Compound 688] | ***** (>2.5° C.=*****)
Cc1cc(N2CC[C@](C)(c3ccccc3)C2)cn2nc(C(=O)NC[C@@H]3CCCN3c3cccc(C(=O)O)n3)nc12 [Compound 689] | ***** (>2.5° C.=*****)
Cc1cc(N2CC[C@](C)(c3ccccc3)C2)cn2nc(C(=O)NC3CC4(C3)CN(c3ccnc(C(=O)O)c3)C4)nc12 [Compound 691, (R)-4-(6-(8-methyl-6-(3-methyl-3-phenylpyrrolidin-1-yl)-[1,2,4]triazolo[1,5-a]pyridine-2-carboxamido)-2-azaspiro[3.3]heptan-2-yl)picolinic acid] | ***** (>2.5° C.=*****)
Cc1ccc(C(=O)O)nc1N1CCC2(CCN(C(=O)c3nc4c(C)cc(N5CC[C@](C)(c6ccccc6)C5)cn4n3)C2)C1 (stereo partly drawn) [Compound 692] | ***** (>2.5° C.=*****)
Cc1cc(N2CC[C@](C)(c3ccccc3)C2)cn2nc(C(=O)N[C@@H]3CCCN(c4cccc(C(=O)O)n4)C3)nc12 [Compound 693] | ***** (>2.5° C.=*****)
Cc1cc(N2CC[C@](C)(c3ccccc3)C2)cn2nc(C(=O)N3CCCN(c4ccc(C(=O)O)cn4)CC3)nc12 [Compound 694] | ***** (>2.5° C.=*****)
Cc1cc(N2CC[C@](C)(c3ccccc3)C2)cn2nc(C(=O)N3CC4CCC3C(=O)N4c3cccc(C(=O)O)n3)nc12 (stereo partly drawn) [Compound 695, 6-[5-[8-methyl-6-[(3R)-3-methyl-3-phenyl-pyrrolidin-1-yl]-[1,2,4]triazolo[1,5-a]pyridine-2-carbonyl]-3-oxo-2,5-diazabicyclo[2.2.2]octan-2-yl]pyridine-2-carboxylic acid] | ***** (>2.5° C.=*****)
Cc1cc(N2CC[C@](C)(c3ccccc3)C2)cn2nc(C(=O)N3CC(CNc4cccc(C(=O)O)n4)C(C)(O)C3)nc12 (stereo partly drawn) [Compound 696, 6-(((4-hydroxy-4-methyl-1-(8-methyl-6-((R)-3-methyl-3-phenylpyrrolidin-1-yl)-[1,2,4]triazolo[1,5-a]pyridine-2-carbonyl)pyrrolidin-3-yl)methyl)amino)picolinic acid] | ***** (>2.5° C.=*****)
Cc1cc(N2CC[C@](C)(c3ccccc3)C2)cn2nc(C(=O)NC3C4CC3N(c3cccc(C(=O)O)n3)C4)nc12 (stereo partly drawn) [Compound 697, 6-[5-[[8-methyl-6-[(3R)-3-methyl-3-phenyl-pyrrolidin-1-yl]-[1,2,4]triazolo[1,5-a]pyridine-2-carbonyl]amino]-2-azabicyclo[2.1.1]hexan-2-yl]pyridine-2-carboxylic acid] | ***** (>2.5° C.=*****)
Cc1cc(N2CC[C@](C)(c3ccccc3)C2)cn2nc(C(=O)N[C@@H]3CN(c4cccc(C(=O)O)n4)CC34CC4)nc12 [Compound 698] | ***** (>2.5° C.=*****)
Cc1cc(N2CC[C@](C)(c3ccccc3)C2)cn2nc(C(=O)NC3CN(c4cccc(C(=O)O)n4)CC4(COC4)C3)nc12 (stereo partly drawn) [Compound 699, 6-[6-[[8-methyl-6-[(3R)-3-methyl-3-phenyl-pyrrolidin-1-yl]-[1,2,4]triazolo[1,5-a]pyridine-2-carbonyl]amino]-2-oxa-8-azaspiro[3.5]nonan-8-yl]pyridine-2-carboxylic acid] | ***** (>2.5° C.=*****)
Cc1cc(N2CC[C@](C)(c3cccc(F)c3)C2)cn2nc(C(=O)NC3CCN(c4cccc(C(=O)O)n4)CC34COC4)nc12 (stereo partly drawn) [Compound 700] | ***** (>2.5° C.=*****)
Cc1cc(N2CC[C@@](C)(n3ccc(C(F)(F)F)n3)C2)cn2nc(C(=O)N[C@@H]3CCN(c4cccc(C(=O)O)n4)CC34COC4)nc12 [Compound 701] | ***** (>2.5° C.=*****)
Cc1cc(N2CC[C@](C)(c3ccccc3)C2)cn2nc(C(=O)N3CCC(Nc4cccc(C(=O)O)n4)C4(COC4)C3)nc12 (stereo partly drawn) [Compound 702] | ***** (>2.5° C.=*****)
Cc1cc(N2CC[C@](C)(c3ccccc3)C2)cn2nc(C(=O)N3C[C@H](O)[C@@]4(CCN(c5cccc(C(=O)O)n5)C4)C3)nc12 [Compound 703, Mis6-[4-hydroxy-2-[8-methyl-6-[(3R)-3-methyl-3-phenyl-pyrrolidin-1-yl]-[1,2,4]triazolo[1,5-a]pyridine-2-carbonyl]-2,7-diazaspiro[4.4]nonan-7-yl]pyridine-2-carboxylic acid] | ***** (>2.5° C.=*****)
